The source of these data is ChEMBL document CHEMBL5291721, “A preclinical secondary pharmacology resource illuminates target-adverse drug reaction associations of marketed drugs” (Nat Commun, 2023).

A value given as a limit tells only on which side of the number the result lay.

One may read the AC50 as the concentration giving half of the maximal activity seen.

One test concerns the target T1, Thromboxane A2 receptor (Homo sapiens, UniProt P21731).
T1 sequence (P21731 whole entry): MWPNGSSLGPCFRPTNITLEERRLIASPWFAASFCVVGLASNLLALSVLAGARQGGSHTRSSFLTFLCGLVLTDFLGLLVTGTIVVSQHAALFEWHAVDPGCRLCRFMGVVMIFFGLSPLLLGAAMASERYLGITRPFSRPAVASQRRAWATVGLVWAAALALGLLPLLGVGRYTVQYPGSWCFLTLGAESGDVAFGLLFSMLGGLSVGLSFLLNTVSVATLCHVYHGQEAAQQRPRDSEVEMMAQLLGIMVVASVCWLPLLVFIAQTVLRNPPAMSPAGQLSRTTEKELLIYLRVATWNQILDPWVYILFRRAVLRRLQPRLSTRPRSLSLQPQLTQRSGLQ
It is filed as functional, cell-based.

The target in test [1] is Voltage-gated inwardly rectifying potassium channel KCNH2 (Homo sapiens, UniProt Q12809). The format is functional.
In test [2] the target is T2, Gamma-aminobutyric acid receptor subunit alpha-1 (Rattus norvegicus, UniProt P62813).
T2 sequence (P62813 whole entry): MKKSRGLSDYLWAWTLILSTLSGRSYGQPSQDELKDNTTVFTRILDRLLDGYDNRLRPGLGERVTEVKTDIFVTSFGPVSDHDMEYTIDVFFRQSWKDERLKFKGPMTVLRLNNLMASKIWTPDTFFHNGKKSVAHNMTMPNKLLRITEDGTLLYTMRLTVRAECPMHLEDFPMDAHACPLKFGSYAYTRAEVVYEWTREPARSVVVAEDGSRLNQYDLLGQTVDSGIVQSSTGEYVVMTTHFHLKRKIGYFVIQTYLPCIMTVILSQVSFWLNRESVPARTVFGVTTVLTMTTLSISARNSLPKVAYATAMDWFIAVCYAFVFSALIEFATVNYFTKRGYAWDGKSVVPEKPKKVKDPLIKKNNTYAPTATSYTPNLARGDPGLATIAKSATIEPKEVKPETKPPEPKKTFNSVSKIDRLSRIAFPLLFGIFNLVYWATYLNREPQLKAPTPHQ
For test [3], the target named is Sodium-dependent noradrenaline transporter (Homo sapiens, UniProt P23975).
Chain of Sodium-dependent noradrenaline transporter (P23975 whole entry): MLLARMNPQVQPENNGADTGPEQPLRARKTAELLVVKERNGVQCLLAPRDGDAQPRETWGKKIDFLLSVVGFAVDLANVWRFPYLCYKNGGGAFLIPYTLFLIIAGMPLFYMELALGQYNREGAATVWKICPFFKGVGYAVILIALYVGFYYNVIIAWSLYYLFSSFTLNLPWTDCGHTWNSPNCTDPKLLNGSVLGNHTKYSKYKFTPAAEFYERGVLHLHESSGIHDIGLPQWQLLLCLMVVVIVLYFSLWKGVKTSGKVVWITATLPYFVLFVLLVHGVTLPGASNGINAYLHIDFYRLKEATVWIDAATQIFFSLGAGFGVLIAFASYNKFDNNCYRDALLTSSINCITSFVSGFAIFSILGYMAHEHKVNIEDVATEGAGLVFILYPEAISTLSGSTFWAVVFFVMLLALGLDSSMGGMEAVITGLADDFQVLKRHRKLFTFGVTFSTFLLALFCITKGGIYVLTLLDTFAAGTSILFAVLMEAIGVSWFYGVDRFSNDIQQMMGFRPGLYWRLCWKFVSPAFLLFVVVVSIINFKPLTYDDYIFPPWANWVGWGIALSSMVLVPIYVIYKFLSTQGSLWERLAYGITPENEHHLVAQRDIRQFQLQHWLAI
Test [4] has as its target Delta-type opioid receptor (Homo sapiens, UniProt P41143).
Test [5] deals with T3, Mu-type opioid receptor (Homo sapiens, UniProt P35372).
T3 sequence (P35372 whole entry): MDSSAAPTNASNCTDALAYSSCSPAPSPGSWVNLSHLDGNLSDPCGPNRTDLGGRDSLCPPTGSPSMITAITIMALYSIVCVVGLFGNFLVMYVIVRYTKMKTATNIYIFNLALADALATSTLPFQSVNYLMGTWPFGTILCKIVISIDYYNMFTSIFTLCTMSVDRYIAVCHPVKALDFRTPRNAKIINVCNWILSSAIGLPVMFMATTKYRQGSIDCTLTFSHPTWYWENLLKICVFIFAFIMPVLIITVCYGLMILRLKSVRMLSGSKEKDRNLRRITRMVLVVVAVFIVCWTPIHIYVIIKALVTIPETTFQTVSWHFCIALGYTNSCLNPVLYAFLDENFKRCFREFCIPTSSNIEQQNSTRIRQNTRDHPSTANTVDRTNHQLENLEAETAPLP
In test [6] the target is Glutamate receptor ionotropic, NMDA 1 (Rattus norvegicus, UniProt P35439).
Test [7] has as its target Kappa-type opioid receptor (Homo sapiens, UniProt P41145).
In test [8] the target is Voltage-dependent L-type calcium channel subunit alpha-1C (Rattus norvegicus, UniProt P22002). It is filed as functional.
Chain of Voltage-dependent L-type calcium channel subunit alpha-1C (Rattus norvegicus, UniProt P22002) (P22002 whole entry): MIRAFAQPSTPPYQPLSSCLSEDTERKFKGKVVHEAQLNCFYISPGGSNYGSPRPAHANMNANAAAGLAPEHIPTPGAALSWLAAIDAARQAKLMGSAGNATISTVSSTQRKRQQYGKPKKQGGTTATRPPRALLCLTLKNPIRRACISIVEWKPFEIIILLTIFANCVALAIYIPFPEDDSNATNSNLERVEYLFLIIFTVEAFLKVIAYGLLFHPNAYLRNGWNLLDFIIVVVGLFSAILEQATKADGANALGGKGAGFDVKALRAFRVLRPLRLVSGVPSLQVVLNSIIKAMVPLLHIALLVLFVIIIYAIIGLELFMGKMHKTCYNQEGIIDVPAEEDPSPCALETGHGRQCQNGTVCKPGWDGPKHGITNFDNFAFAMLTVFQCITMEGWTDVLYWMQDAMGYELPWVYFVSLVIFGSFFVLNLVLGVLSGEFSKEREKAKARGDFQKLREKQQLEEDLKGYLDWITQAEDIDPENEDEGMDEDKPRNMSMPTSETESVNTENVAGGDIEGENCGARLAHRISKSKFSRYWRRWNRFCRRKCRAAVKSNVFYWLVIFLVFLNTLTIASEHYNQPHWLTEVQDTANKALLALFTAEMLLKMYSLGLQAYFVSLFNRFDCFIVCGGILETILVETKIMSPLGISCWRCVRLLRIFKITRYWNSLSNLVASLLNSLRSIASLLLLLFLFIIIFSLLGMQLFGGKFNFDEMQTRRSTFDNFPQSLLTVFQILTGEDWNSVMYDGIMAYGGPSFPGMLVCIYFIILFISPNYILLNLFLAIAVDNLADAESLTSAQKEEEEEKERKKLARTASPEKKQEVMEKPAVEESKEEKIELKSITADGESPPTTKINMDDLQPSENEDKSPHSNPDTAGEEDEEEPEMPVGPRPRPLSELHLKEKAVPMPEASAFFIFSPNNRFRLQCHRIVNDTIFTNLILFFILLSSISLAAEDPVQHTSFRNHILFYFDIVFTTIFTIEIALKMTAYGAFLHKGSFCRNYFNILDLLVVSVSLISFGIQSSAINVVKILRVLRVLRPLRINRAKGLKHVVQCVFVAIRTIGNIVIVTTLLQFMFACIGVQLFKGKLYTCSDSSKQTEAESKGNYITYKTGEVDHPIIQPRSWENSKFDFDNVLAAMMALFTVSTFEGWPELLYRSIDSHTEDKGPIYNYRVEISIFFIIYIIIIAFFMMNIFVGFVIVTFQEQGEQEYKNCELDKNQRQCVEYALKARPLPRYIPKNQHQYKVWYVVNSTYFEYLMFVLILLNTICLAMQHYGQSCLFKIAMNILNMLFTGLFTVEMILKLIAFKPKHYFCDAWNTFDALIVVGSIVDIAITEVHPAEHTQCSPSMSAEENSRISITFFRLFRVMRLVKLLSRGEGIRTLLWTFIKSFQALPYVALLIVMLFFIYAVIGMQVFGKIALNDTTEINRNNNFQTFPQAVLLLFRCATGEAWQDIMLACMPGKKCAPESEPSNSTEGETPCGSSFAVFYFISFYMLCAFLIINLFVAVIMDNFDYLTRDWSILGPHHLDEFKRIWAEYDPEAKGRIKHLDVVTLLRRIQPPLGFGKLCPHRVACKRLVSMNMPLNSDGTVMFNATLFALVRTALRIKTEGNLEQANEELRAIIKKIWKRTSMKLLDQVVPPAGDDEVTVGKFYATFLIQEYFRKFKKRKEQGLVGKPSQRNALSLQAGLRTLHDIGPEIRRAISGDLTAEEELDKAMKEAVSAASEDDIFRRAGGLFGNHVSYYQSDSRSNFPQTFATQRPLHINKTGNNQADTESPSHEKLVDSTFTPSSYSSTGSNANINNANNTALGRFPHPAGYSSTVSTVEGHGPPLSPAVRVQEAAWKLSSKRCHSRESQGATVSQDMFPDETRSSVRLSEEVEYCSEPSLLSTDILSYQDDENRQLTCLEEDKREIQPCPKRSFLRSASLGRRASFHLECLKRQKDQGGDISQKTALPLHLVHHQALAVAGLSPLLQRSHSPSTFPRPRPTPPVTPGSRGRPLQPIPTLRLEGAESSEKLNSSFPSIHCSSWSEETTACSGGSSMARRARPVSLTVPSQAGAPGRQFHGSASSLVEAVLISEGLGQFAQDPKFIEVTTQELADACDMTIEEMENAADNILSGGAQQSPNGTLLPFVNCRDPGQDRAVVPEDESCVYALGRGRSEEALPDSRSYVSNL
The target of test [9] is Neuronal acetylcholine receptor subunit alpha-4 (Homo sapiens, UniProt P43681).
Test [10] deals with T2, Gamma-aminobutyric acid receptor subunit alpha-1. It is filed as functional.
The target of test [11] is T3, Mu-type opioid receptor. In words: biochemical. The format is functional.
In test [12] the target is Beta-2 adrenergic receptor (Homo sapiens, UniProt P07550).
Test [13] deals with T4, Alpha-1A adrenergic receptor (Homo sapiens, UniProt P35348).
T4 sequence (P35348 whole entry): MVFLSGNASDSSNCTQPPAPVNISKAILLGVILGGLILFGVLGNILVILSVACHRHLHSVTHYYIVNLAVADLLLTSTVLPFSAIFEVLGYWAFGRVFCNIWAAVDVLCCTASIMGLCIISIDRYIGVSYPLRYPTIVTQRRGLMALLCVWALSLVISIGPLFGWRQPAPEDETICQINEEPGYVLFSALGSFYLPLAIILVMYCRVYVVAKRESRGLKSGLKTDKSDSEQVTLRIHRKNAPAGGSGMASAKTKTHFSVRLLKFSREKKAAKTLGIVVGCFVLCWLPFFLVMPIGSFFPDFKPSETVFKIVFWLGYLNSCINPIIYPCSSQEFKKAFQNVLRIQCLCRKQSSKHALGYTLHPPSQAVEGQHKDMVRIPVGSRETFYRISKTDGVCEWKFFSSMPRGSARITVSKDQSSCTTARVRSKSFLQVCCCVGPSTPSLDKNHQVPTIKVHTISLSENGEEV

The target of test [14] is Beta-1 adrenergic receptor (Homo sapiens, UniProt P08588). It is filed as functional.
The next test has as its target Acetylcholinesterase (Homo sapiens, UniProt P22303). The format is functional.
For test [15], the target named is Growth hormone secretagogue receptor type 1 (Homo sapiens, UniProt Q92847).
Test [16] addresses Epidermal growth factor receptor (Homo sapiens, UniProt P00533). It is filed as functional.
In another test the target is Histamine H3 receptor (Homo sapiens, UniProt Q9Y5N1).
The target in test [17] is T5, Amine oxidase [flavin-containing] A (Homo sapiens, UniProt P21397).
T5 sequence (P21397 whole entry): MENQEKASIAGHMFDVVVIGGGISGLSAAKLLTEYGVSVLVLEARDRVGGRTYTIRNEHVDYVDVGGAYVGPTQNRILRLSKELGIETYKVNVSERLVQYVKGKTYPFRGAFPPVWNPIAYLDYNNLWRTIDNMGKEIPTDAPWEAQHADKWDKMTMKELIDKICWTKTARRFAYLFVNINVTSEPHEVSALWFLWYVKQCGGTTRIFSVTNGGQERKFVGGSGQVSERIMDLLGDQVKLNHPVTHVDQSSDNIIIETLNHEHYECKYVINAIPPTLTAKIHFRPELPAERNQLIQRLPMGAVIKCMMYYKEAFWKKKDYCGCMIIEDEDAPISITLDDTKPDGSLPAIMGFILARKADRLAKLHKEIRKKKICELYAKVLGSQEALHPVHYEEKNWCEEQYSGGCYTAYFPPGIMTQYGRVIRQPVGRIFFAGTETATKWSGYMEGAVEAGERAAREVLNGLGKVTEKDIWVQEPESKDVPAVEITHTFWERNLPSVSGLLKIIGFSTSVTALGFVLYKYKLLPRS
The format is functional.

Test [18] has as its target T6, Alpha-2A adrenergic receptor (Homo sapiens, UniProt P08913).
T6 sequence (P08913 whole entry): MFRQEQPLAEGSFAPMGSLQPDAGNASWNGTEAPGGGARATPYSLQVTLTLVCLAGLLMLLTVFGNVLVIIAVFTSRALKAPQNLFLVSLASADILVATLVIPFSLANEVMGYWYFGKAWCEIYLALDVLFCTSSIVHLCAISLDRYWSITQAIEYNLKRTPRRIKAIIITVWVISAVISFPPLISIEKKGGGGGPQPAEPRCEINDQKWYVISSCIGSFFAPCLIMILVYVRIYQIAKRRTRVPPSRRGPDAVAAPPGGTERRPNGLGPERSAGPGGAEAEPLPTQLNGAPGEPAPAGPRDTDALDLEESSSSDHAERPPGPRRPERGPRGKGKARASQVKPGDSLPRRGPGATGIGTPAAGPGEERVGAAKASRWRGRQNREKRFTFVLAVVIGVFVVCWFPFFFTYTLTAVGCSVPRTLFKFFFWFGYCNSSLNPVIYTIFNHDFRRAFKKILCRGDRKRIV

Test [19] addresses T4, Alpha-1A adrenergic receptor. The format is functional, cell-based.
For test [20], the target named is Voltage-dependent L-type calcium channel subunit alpha-1C (Homo sapiens, UniProt Q13936). The format is functional, cell-based.
In test [21] the target is T4, Alpha-1A adrenergic receptor. The format is functional, cell-based. This is another data set of the same source.
Another test concerns the target T7, Androgen receptor (Homo sapiens, UniProt P10275).
T7 sequence (P10275 whole entry): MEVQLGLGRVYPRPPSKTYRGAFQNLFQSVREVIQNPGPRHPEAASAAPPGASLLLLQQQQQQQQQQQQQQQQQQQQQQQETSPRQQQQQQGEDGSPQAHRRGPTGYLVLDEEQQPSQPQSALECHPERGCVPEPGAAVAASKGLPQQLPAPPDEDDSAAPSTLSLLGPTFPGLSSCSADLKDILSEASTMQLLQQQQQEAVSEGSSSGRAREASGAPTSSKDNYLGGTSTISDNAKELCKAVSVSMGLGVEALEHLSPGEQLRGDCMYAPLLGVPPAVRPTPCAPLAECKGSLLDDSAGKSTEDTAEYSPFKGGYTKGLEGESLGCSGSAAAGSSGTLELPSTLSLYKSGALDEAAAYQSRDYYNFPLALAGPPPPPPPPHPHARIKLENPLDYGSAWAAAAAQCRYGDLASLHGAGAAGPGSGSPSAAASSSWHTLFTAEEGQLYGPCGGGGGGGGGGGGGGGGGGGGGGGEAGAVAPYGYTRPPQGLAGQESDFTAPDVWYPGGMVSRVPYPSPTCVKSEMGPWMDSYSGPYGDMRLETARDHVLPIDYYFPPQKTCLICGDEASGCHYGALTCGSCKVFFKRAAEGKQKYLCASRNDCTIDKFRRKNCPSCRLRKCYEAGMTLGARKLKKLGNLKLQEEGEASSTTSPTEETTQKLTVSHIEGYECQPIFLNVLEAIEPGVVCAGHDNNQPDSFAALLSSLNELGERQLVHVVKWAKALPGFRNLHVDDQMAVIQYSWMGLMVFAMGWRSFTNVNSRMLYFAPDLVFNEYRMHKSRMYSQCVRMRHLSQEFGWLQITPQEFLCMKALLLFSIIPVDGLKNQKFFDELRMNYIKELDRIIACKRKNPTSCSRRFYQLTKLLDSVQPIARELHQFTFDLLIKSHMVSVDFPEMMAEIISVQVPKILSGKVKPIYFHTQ
Further: assay procedure not described here.

Chain of Acetylcholinesterase (P22303 whole entry): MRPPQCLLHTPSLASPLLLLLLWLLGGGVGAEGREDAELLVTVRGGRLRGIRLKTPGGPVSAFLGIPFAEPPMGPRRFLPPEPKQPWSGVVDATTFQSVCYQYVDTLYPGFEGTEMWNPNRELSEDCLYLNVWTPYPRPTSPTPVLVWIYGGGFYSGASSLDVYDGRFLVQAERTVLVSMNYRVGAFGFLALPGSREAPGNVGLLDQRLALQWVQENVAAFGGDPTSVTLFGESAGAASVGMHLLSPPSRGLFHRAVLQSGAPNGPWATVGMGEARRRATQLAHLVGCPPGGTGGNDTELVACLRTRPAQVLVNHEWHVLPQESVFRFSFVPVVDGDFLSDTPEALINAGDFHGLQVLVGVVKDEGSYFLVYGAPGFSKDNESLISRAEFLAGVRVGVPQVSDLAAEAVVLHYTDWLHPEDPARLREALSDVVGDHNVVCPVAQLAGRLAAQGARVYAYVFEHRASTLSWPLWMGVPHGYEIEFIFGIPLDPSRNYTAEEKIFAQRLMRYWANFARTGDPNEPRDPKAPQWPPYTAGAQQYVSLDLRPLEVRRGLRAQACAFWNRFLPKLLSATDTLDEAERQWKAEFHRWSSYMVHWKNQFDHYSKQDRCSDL
Chain of Kappa-type opioid receptor (P41145 whole entry): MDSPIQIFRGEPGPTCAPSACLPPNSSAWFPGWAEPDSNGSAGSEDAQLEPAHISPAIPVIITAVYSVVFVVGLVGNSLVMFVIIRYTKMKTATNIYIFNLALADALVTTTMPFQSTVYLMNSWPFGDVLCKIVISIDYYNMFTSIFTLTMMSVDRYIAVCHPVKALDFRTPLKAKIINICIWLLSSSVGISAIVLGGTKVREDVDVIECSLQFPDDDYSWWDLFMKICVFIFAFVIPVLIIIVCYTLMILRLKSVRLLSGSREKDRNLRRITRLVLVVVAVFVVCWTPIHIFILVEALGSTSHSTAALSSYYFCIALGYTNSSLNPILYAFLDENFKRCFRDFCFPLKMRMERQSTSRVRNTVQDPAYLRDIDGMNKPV
Chain of Delta-type opioid receptor (P41143 whole entry): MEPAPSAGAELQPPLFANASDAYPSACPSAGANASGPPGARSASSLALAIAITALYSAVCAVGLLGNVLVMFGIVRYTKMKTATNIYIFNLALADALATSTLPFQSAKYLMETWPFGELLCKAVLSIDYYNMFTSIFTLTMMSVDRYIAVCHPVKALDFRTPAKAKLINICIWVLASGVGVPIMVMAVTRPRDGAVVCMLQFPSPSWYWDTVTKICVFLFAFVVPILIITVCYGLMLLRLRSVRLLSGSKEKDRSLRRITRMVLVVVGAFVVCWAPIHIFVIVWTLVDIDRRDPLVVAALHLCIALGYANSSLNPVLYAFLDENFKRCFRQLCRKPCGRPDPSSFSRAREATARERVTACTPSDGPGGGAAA

Regarding `CCCCC[C@H](O)/C=C/[C@@H]1[C@@H](C/C=C\CCCC(=O)O)[C@@H](O)C[C@H]1O` [DINOPROST], at Thromboxane A2 receptor, half-maximal activity (AC50) was put at 2.76 µM.

As for `CSCC[C@H](NC(=O)[C@H](Cc1c[nH]c2ccccc12)NC(=O)CCNC(=O)OC(C)(C)C)C(=O)N[C@@H](CC(=O)O)C(=O)N[C@@H](Cc1ccccc1)C(N)=O` [PENTAGASTRIN], the AC50 in test [1] was above 30 µM; in test [2] it was above 10 µM; in [3] it was above 10 µM; in [4] it was above 30 µM; on Mu-type opioid receptor [5], above 30 µM; in test [6], above 10 µM. Further, the concentration at half-maximal activity (AC50) is above 10 µM in [7]; above 10 µM in test [8]; above 10 µM in test [9]; above 10 µM in test [10]; above 30 µM at Mu-type opioid receptor [11].

`CCc1cc(C(N)=S)ccn1` [ETHIONAMIDE]: the AC50 in test [6], in [8], in test [12], in test [13] and in test [14] was above 10 µM throughout.

`CC(C)Oc1ccc2c(=O)c(-c3ccccc3)coc2c1` [IPRIFLAVONE] displayed a concentration at half-maximal activity (AC50) on Acetylcholinesterase above 30 µM.

`N=C(N)c1ccc(OCCCCCOc2ccc(C(=N)N)cc2)cc1` [PENTAMIDINE] registered an AC50 at Acetylcholinesterase of 7.28 µM.

In the case of `O=C(O)Cc1cc(I)c(Oc2ccc(O)c(I)c2)c(I)c1` [TIRATRICOL], the AC50 in [15] and in test [16] was above 30 µM in each case.

As to `c1ccc(C2(c3ccccc3)CC2C2=NCCN2)cc1` (centres undefined) [CIFENLINE], the AC50 on Histamine H3 receptor is above 30 µM; on Acetylcholinesterase, above 30 µM; in [17] it was above 30 µM; in [18], above 30 µM; in test [19], above 30 µM; in [20], above 50 µM. Further, the values for the concentration at half-maximal activity (AC50) (in test [21]; at Androgen receptor) were above 30 µM and 22.6 µM, respectively.
